# Source: patent publication US8318898B2, “Synthetic peptides for use as inhibitors of neurotransmitter secretion and as inducers of cellular relaxation” (Universite de Lausanne, priority 2005, dated 2012)
# Tests used:
# [1] = test system: PC-12 cells; assay: Actin cytoskeleton organization, phalloidin-TRITC staining; assay type: cell-based, rat
# Experimental: Slides with PC-12 cells were prepared as stated previously for localization studies. Briefly, cells were exposed to FITC-labeled or unlabeled peptides, at various concentrations, for 30 minutes, fixed and then permeabilized. Subsequently, F-actin was fluorescently labeled with phalloidin-Tetramethyl Rhodamine Iso-Thiocyanate (TRITC) (Sigma Aldrich) conjugate, diluted on saponin buffer (0.25 μg/ml), and nuclear staining with DAPI dihydrochloride (Sigma Aldrich) (0.02 μg/ml), at room temperature for maximum 30 minutes. Finally, slides were mounted and sealed, and stored at 4° C. protected from light. The effect of the peptides to actin polymerization was analyzed by confocal microscopy, as described before.
# [2] = test system: PC-12 cells; assay: Subcellular localization of FITC-labeled peptide and colocalization with furin, confocal microscopy; assay type: cell-based, rat; settings: 1 and 100 μM
# Source text: Two peptides of interest were FITC-labeled (Anaspec) to follow their interiorization on PC-12 cells (rat pheochromocytoma cells): L-Bel1 (SEQ ID NO. 3) and D-9Rac/am (SEQ ID NO. 15). After observation of L-Bel1-FITC conjugate interiorization, a monoclonal antibody for furin endoprotease was used for colocalization studies by confocal microscopy analysis.
# PC-12 cells were resuspended in Dulbecco's modified Eagle's medium (DMEM) high glucose (Gibco BRL, Life Technologies) containing 6% decomplemented horse serum, 6% decomplemented fetal bovine serum, supplemented with 25 U/ml penicillin-streptomycin-I-glutamine. Cells were seeded at 3×10^4 cells/well (200 μl), on 8-well microscope slide chamber (BD Biosciences), previously coated with collagen I (Roche Diagnostics) solution (0.0007%). After an overnight incubation at 37° C. in 5% CO2, cells were washed twice using fresh medium without serum, and then incubated in the presence or absence of the peptide, for the indicated time. […]
# The fluorescent images were obtained by confocal laser scanning microscope (Zeiss LSM 510) with lasers of argon (488 nm), helium-neon 1 (543 nm), and enterprise (364 nm); connected to an inverted fluorescence microscope (Zeiss Axiovert 100 M), equipped with a 63×/1.4 PL APO chromate objective lens.
smiles,measurement,setting,value
N=C(N)NCCC[C@H](NC(=O)CNC(=O)[C@H](Cc1ccc(O)cc1)NC(=O)CN)C(=O)N[C@@H](CCCCN)C(=O)N[C@@H](CCCCN)C(=O)N[C@@H](CCCNC(=N)N)C(=O)N[C@@H](CCCNC(=N)N)C(=O)N[C@@H](CCC(N)=O)C(=O)N[C@@H](CCCNC(=N)N)C(=O)N[C@@H](CCCNC(=N)N)C(=O)N[C@@H](CCCNC(=N)N)C(=O)NCC(=O)O [L-Tat],effect on actin content and organization at higher concentration,[1]; 100 μM,almost lost
same,effect on actin content and organization,"[1]; 2 to 10 μM, 30 minutes, labeled or unlabeled",decreased actin content and organization
same,internalization of FITC-labeled peptide,[2],crosses the basal membrane
